This is an account of results in patent US20250257041A1, “INDUCERS OF INTEGRATED STRESS RESPONSE TO TREAT CANCER” (The Board of Regents of The University of Texas System, priority 2022, published 2025).

This test has as its system HCT116 WT. Nature of the test: Proliferation of HCT116 colorectal cell line, Cell TiterGlo. The class given is cell-based, human. To be noted: Homo sapiens, HCT-116, wild type HCT116; 10-point dose response in triplicate; multiple values = separate independent experiments; read-out: HCT116 IC50 (uM) HCT116 WT. The protocol:
Briefly, compounds were tested for their effect on proliferation of HCT116 colorectal cell lines using Cell TiterGlo (Promega). Each compound was tested in a 10-point dose response experiment in triplicate. Multiple values in the column titled HCT116 WT reflect separate independent experiments. The three columns titled “HCT116 WT (repeat)”, “HCT116-CGN2KO” and “HCT116 WT+ISRIB” provide data for selected compounds that were tested simultaneously under three conditions. The HCT116 WT column lists IC50 against the wild type HCT116 colorectal cancer cell line. The HCT116-CGN2KO lists IC50 data for cells in which one component of the integrated stress response, GCN2, has been knocked out using CRISPR technology.
On to `C#CCOc1cccc(C(=O)Nc2cc(-c3ccc(NC(=O)c4ccccc4N=[N+]=[N-])cc3)nn2C)c1` [SW393186, 2-Azido-N-(4-(1-methyl-5-(3-(prop-2-yn-1-yloxy)benzamido)-1H-pyrazol-3-yl)phenyl)benza-mide], for which the IC50 is 0.1 µM.

On to `Cn1nc(-c2ccc(NC(=O)c3ccccc3Cl)cc2)cc1NC(=O)c1cccc(C(=O)c2ccccc2)c1` [SW393187, N-(4-(5-(3-benzoylbenzamido)-1-methyl-1H-pyrazol-3-yl)phenyl)-2-chlorobenzamide], for which the IC50 is 0.14 µM.

On to `Cn1nc(-c2ccc(NC(=O)c3ccccc3Cl)cc2)cc1NC(=O)c1ccc(C(=O)c2ccccc2)cc1` [SW393188, N-(4-(5-(4-benzoylbenzamido)-1-methyl-1H-pyrazol-3-yl)phenyl)-2-chlorobenzamide], for which the IC50 was found to be 0.6 µM.

With `C#CCOCc1ccccc1C(=O)Nc1ccc(-c2cc(NC(=O)c3ccccc3)n(C)n2)cc1` [SW393189, N-(4-(5-benzamido-1-methyl-1H-pyrazol-3-yl)phenyl)-2-((prop-2-yn-1-yloxy)methyl)benzamide], the IC50 was 0.06 µM.

With `C#CCOc1cccc(C(=O)Nc2cc(-c3ccc(NC(=O)c4cc(N=[N+]=[N-])ccc4Cl)cc3)nn2C)c1` [SW393213, 5-Azido-2-chloro-N-(4-(1-methyl-5-(3-(prop-2-yn-1-yloxy)benzamido)-1H-pyrazol-3-yl)phe-nyl)benzamide], the IC50 came to 0.37 µM.

As to `CCn1nc(-c2ccc(NC(=O)c3ccccc3Cl)cc2)cc1NC(=O)c1ccccc1` [SW393214, N-(4-(5-Benzamido-1-ethyl-1H-pyrazol-3-yl)phenyl)-2-chlorobenzamide], the 50% inhibitory concentration (IC50) turned out to be 0.57 µM.

On to `O=C(Nc1cc(-c2ccc(NC(=O)c3ccccc3Cl)cc2)nn1Cc1ccccc1)c1ccccc1` [SW393215, N-(4-(5-Benzamido-1-benzyl-1H-pyrazol-3-yl)phenyl)-2-chlorobenzamide], for which the half-maximal inhibitory concentration (IC50) turned out to be 0.62 µM.

Regarding `Cc1c(-c2ccc(NC(=O)c3ccccc3Cl)cc2)nn(C)c1NC(=O)c1ccccc1` [SW393216, N-(4-(5-Benzamido-1,4-dimethyl-1H-pyrazol-3-yl)phenyl)-2-chlorobenzamide], the IC50 came to 0.07 µM.

As for `Cc1ccccc1C(=O)Nc1cc(-c2ccc(NC(=O)c3ccccc3Cl)cc2)nn1C` [SW393217, 2-chloro-N-(4-(1-methyl-5-(2-methylbenzamido)-1H-pyrazol-3-yl)phenyl)benzamide], the IC50 was determined as 0.03 µM.

With `Cn1nc(-c2ccc(NC(=O)c3ccccc3Cl)cc2)cc1NC(=O)c1ccccc1Br` [SW393218, 2-bromo-N-(3-(4-(2-chlorobenzamido)phenyl)-1-methyl-1H-pyrazol-5-yl)benzamide], the IC50 came out at 0.02 µM.

Turning to `Cn1nc(-c2ccc(NC(=O)c3ccccc3F)cc2)cc1NC(=O)c1ccccc1` [SW393241, N-(4-(5-Benzamido-1-methyl-1H-pyrazol-3-yl)phenyl)-2-fluorobenzamide], the half-maximal inhibitory concentration (IC50) came out at 0.04 µM.

`C#Cc1cccc(C(=O)Nc2cc(-c3ccc(NC(=O)c4ccc(C5(C(F)(F)F)N=N5)cc4)cc3)nn2C)c1` [SW393242, 3-Ethynyl-N-(1-methyl-3-(4-(4-(3-(trifluoromethyl)-3H-diazirin-3-yl)benzamido)phenyl)-1H-pyrazol-5-yl)benzamide]: the IC50 turned out to be 1.35 µM.

`C#Cc1cccc(C(=O)Nc2cc(-c3ccc(NC(=O)c4cccc(C5(C(F)(F)F)N=N5)c4)cc3)nn2C)c1` [SW393243, 3-Ethynyl-N-(1-methyl-3-(4-(3-(3-(trifluoromethyl)-3H-diazirin-3-yl)benzamido)phenyl)-1H-pyrazol-5-yl)benzamide]: the IC50 turned out to be 17 µM.

`Cn1nc(-c2ccc(NC(=O)c3ccccc3Cl)cc2)cc1NC(=O)c1ccccc1F` [SW393244, 2-chloro-N-(4-(5-(2-fluorobenzamido)-1-methyl-1H-pyrazol-3-yl)phenyl)benzamide]: the IC50 is about 0.01 µM.

`Cn1nc(-c2ccc(NC(=O)c3ccccc3-c3ccccc3)cc2)cc1NC(=O)c1ccccc1` [SW393270, N-(4-(5-benzamido-1-methyl-1H-pyrazol-3-yl)phenyl)-[1,1′-biphenyl]-2-carboxamide]: the IC50 was determined as 0.13 µM.

As for `COc1cc(-c2cc(NC(=O)c3ccccc3)n(C)n2)ccc1NC(=O)c1ccccc1Cl` [SW393279, N-(4-(5-benzamido-1-methyl-1H-pyrazol-3-yl)-2-methoxyphenyl)-2-chlorobenzamide], the IC50 was over 10 µM.

`C#CCOCc1ccccc1C(=O)Nc1ccc(-c2cc(NC(=O)c3cccc(N=[N+]=[N-])c3)n(C)n2)cc1` [SW393280, N-(4-(5-(3-azidobenzamido)-1-methyl-1H-pyrazol-3-yl)phenyl)-2-((prop-2-yn-1-yloxy)methyl)benzamide]: the IC50 was found to be 0.12 µM.

Regarding `Cn1nc(-c2ccc(C(=O)Nc3ccccc3Cl)cc2)cc1NC(=O)c1ccccc1` [SW393293, 4-(5-benzamido-1-methyl-1H-pyrazol-3-yl)-N-(2-chlorophenyl)benzamide], the concentration for half-maximal inhibition (IC50) worked out at 0.19 µM.

For `Cn1nc(-c2ccc(NC(=O)c3ccccc3Cl)cc2Cl)cc1NC(=O)c1ccccc1` [SW393294, N-(4-(5-benzamido-1-methyl-1H-pyrazol-3-yl)-3-chlorophenyl)-2-chlorobenzamide], the IC50 came out at 0.28 µM.

On to `O=C(Nc1nc(-c2ccc(NC(=O)c3ccccc3Cl)cc2)cs1)c1ccccc1` [SW393296, N-(4-(2-Benzamidothiazol-4-yl)phenyl)-2-chlorobenzamide], for which the IC50 is 1.9 µM.

Consider `Cn1nc(-c2ccc(NC(=O)c3ccccc3CN3CCOCC3)cc2)cc1NC(=O)c1ccccc1` [SW393298, N-(4-(5-Benzamido-1-methyl-1H-pyrazol-3-yl)phenyl)-2-(morpholinomethyl)benzamide], for which the IC50 stood at 0.15 µM.

Take `Cn1nc(-c2ccc(NC(=O)c3ccccc3COCc3cn(CCOCCNC(=S)Nc4ccc(-c5c6ccc(=O)cc-6oc6cc(O)ccc56)c(C(=O)O)c4)nn3)cc2)cc1NC(=O)c1ccccc1` [SW393345, 5-(3-(2-(2-(4-(((2-((4-(5-benzamido-1-methyl-1H-pyrazol-3-yl)phenyl)carbamoyl)benzyl)oxy)methyl)-1H-1,2,3-triazol-1-yl)ethoxy)ethyl)thioureido)-2-(6-hydroxy-3-oxo-3H-xanthen-9-yl)benzoic acid]: the IC50 worked out at 11.4 µM.

Consider `Cn1nc(-c2ccc(NC(=O)C3CCCCC3)cc2)cc1NC(=O)c1ccccc1` [SW394442, N-(3-(4-(Cyclohexanecarboxamido)phenyl)-1-methyl-1H-pyrazol-5-yl)benzamide], for which the half-inhibitory concentration (IC50) was 0.024 µM.

With `Cn1nc(-c2ccc(NC(=O)c3cccnc3Cl)cc2)cc1NC(=O)c1ccccc1` [SW394443, N-(4-(5-Benzamido-1-methyl-1H-pyrazol-3-yl)phenyl)-2-chloronicotinamide], the IC50 was 0.02 µM.

Consider `Cn1nc(C2CCC(NC(=O)c3ccccc3Cl)CC2)cc1NC(=O)c1ccccc1` (stereo not drawn) [SW394444, N-(4-(5-benzamido-1-methyl-1H-pyrazol-3-yl)cyclohexyl)-2-chlorobenzamide], for which the 50% inhibitory concentration (IC50) was over 50 µM.

As to `Cn1nc(-c2ccc(NC(=O)c3ccncc3Cl)cc2)cc1NC(=O)c1ccccc1` [SW394446, N-(4-(5-Benzamido-1-methyl-1H-pyrazol-3-yl)phenyl)-3-chloroisonicotinamide], the IC50 was found to be 0.05 µM.

Take `Cn1nc(-c2ccc(NC(=O)c3ncccc3Cl)cc2)cc1NC(=O)c1ccccc1` [SW394447, N-(4-(5-Benzamido-1-methyl-1H-pyrazol-3-yl)phenyl)-3-chloropicolinamide]: the half-inhibitory concentration (IC50) was 0.58 µM.

Regarding `O=C(Nc1cccc(-c2ccc(NC(=O)c3ccccc3Cl)cc2)c1)c1ccccc1` [SW394484, N-(3′-benzamido-[1,1′-biphenyl]-4-yl)-2-chlorobenzamide], the IC50 came to 3.94 µM.

With `Cn1nc(-c2ccc(NC(=O)c3ccccc3-c3cncnc3)cc2)cc1NC(=O)c1ccccc1` [SW394485, N-(4-(5-Benzamido-1-methyl-1H-pyrazol-3-yl)phenyl)-2-(pyrimidin-5-yl)benzamide], the IC50 stood at 0.107 µM.

For `Cn1nc(-c2ccc(NC(=O)c3ccccc3-c3cccnc3)cc2)cc1NC(=O)c1ccccc1` [SW394486, N-(4-(5-Benzamido-1-methyl-1H-pyrazol-3-yl)phenyl)-2-(pyridin-3-yl)benzamide], the IC50 stood at 0.025 µM.

`C#Cc1cccc(C(=O)Nc2cc(-c3ccc(NC(=O)c4cccnc4Cl)cc3)nn2C)c1` [SW394487, 2-Chloro-N-(4-(5-(3-ethynylbenzamido)-1-methyl-1H-pyrazol-3-yl)phenyl)nicotinamide]: the IC50 stood at 0.023 µM.

In the case of `Cn1nc(-c2ccc(NC(=O)C3CCCC3)cc2)cc1NC(=O)c1ccccc1` [SW394488, N-(3-(4-(Cyclopentanecarboxamido)phenyl)-1-methyl-1H-pyrazol-5-yl)benzamide], the IC50 came out at 0.32 µM.

For the compound `Cn1nc(-c2ccc(NC(=O)C3CCN(C(=O)OC(C)(C)C)CC3)cc2)cc1NC(=O)c1ccccc1` [SW394490, tert-butyl4-((4-(5-benzamido-1-methyl-1H-pyrazol-3-yl)phenyl)carbamoyl)piperidine-1-carboxylate], the IC50 was 3.84 µM.

For `Cn1nc(-c2ccc(NC(=O)C3CCC3)cc2)cc1NC(=O)c1ccccc1` [SW394491, N-(3-(4-(Cyclobutanecarboxamido)phenyl)-1-methyl-1H-pyrazol-5-yl)benzamide], the IC50 worked out at 12 µM.

On to `Cn1nc(-c2ccc(NC(=O)C3CCCCCC3)cc2)cc1NC(=O)c1ccccc1` [SW394515, N-(4-(5-Benzamido-1-methyl-1H-pyrazol-3-yl)phenyl)cycloheptanecarboxamide], for which the IC50 turned out to be 0.044 µM.

Consider `Cn1nc(-c2ccc(NC(=O)C3CCOCC3)cc2)cc1NC(=O)c1ccccc1` [SW394517, N-(4-(5-Benzamido-1-methyl-1H-pyrazol-3-yl)phenyl)tetrahydro-2H-pyran-4-carboxamide], for which the IC50 worked out at 0.32 µM.

The term IC50 denotes the midpoint of a concentration-inhibition curve.
